Measurements: patent US20090239926A1, “METHODS FOR THE TREATMENT OF PSORIASIS OR PSORIATIC ARTHRITIS USING CYCLOPROPYL-N-CARBOXAMIDE” (priority 2008, published 2009)

Tests used:
spontaneous behavior = experiment: Spontaneous behavior (LABORAS) in non-arthritic mice; assay type: in vivo; details: 25 mg/kg/day
Protocol: Behavioral studies: The effect of Compound A (25 mg/kg/day) on spontaneous behavior was assessed using the LABORAS (Laboratory Animal Behavior Observation Registration and Analysis System), which is an automated system that detects vibrations evoked by movement of a single rodent in a cage. Pattern recognition software then recognizes and quantifies behaviors, including grooming, activity, climbing, immobility, and feeding.

[1] = system: mAB/LPS-induced experimental arthritis in male BALB/c mice; experiment: mAb/LPS-induced mice arthritis model; assay type: in vivo
Protocol: Treatment Regimen: Compound A was administered by oral gavage (PO), using a suitable stainless steel feeding needle. Enbrel (Reference Item) was administrated by intraperitoneal (IP) injections. Compound A was first administered on study Day 3 (one hour prior to the single LPS injection) and thereafter on Days 4, 5, 6, 7, 8, 9, 10, 11, 12 and 13 (total of 11 successive treatment days) at 1, 5 and 25 mg/kg once daily. Compound A treated groups comprised n=8 BALB/c male mice per dosing group. In addition, two equally sized groups were treated with either Enbrel (5 mg/kg/day, Reference Item), or a solution of 0.5% Na CMC/0.25% Tween 80 (PO, 5 ml/kg, Vehicle Control).
Arthritis Reactions: Both hind paws (left and right) of each animal were examined for signs of arthritogenic responses prior to arthritis induction (Day 0) and thereafter on study days 4, 5, 6, 7, 9, 11 & 14 as selected by the Sponsor. Arthritis reactions were scored and recorded according to a 0-4 scale in ascending order of severity (based on Morwell MD Biosciences Inc. brochure) as shown in Table 1.
Measurements of Experimental Arthritis: Hind paw thickness was determined on eight days using a Mitutoyo Electronic Digital Caliper (on Days 0, 4, 5, 6, 7, 9, 11 and 14) and presented as mean group values of the average for both left and right hind paws.

[2] = molecular target: T1, PDE3 from human platelets (Homo sapiens, UniProt Q14432); experiment: Specificity: PDE3; assay type: biochemical
T1 construct: PDE3 and PDE5 from human platelets; from tissue; host or cells: human platelets
T1 sequence (Q14432 whole entry): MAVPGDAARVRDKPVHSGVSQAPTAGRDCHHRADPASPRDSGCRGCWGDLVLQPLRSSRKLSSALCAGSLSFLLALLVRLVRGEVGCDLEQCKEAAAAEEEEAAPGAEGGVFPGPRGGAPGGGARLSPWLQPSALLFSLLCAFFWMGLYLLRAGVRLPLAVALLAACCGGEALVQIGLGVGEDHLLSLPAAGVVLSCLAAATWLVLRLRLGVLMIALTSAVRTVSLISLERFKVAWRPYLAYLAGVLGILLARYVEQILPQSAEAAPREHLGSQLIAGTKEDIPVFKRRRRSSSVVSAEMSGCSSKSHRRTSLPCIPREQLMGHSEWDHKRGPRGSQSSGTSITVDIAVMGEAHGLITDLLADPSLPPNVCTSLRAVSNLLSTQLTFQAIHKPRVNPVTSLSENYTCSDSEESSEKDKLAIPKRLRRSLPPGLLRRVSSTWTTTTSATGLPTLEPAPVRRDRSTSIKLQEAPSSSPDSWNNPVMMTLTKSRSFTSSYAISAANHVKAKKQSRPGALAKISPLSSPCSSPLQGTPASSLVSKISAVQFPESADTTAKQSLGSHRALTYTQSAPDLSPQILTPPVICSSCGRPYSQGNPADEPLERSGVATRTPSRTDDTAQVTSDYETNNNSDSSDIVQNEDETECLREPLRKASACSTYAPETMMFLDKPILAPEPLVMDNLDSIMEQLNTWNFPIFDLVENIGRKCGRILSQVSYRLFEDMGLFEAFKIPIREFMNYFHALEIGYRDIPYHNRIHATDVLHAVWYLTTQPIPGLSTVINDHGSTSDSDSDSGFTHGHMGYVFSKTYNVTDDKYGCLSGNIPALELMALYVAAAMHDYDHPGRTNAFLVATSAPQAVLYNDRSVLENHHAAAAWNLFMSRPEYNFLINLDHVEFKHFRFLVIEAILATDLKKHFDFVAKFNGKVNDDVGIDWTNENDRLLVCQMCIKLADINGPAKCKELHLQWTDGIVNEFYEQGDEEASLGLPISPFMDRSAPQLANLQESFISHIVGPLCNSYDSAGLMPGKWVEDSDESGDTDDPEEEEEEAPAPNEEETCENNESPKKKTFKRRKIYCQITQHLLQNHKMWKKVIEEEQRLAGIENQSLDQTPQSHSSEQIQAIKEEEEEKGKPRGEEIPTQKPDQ
Protocol: The specificity of Compound A for PDE4 was assessed by testing at a single concentration (10 μM) against bovine PDE1, human PDE2, PDE3 and PDE5 from human platelets, and PDE6 from bovine retinal rod outer segments.

[3] = system: LPS-stimulated monocyte TNF-α production; experiment: LPS-induced TNF-α production in monocytes; assay type: cell-based; details: Homo sapiens, LPS 10 ng/ml, 24 hours
Protocol: LPS-induced TNF-α production in Monocytes: Monocytes separated from human peripheral blood mononuclear cells (PBMCs) were plated into a 96-well flat bottom plate at 1×10^5/well in RPMI (5% heat inactivated fetal calf serum (FCS) and then treated with increasing concentrations of Compound A and control (in triplicate). Following a 30 minute pre-incubation period, the monocytes were stimulated with LPS (10 ng/ml) and cultured for 24 hours at 37° C. in 5% CO2. The supernatants are then harvested and analyzed by ELISA.

[4] = system: collagen-induced arthritis in male DBA/1 mice; experiment: Type II collagen-induced mice arthritis model; assay type: in vivo; details: 25 mg/kg orally once a day for 10 days
Protocol: Collagen-Induced Arthritis Animal Model: Type II collagen purified from the cartilage of a young calf was dissolved at 4 mg/ml in 0.1M acetic acid and emulsified with an equal volume of complete Freund's adjuvant (CFA). DBA/1 mice (8-12 weeks of age) were then immunized at two sites at the base of the tail on Day 1 with 100 μl of the emulsion.
Treatment regime and measurement of clinical score: 14 animals per test group were treated orally once a day for 10 days (Days 1-10) with vehicle (0.5% carboxymethyl-cellulose/0.25% Tween 80), or Compound A suspended in vehicle at 5 mg/kg or 25mg/kg. The experiment was terminated on Day 10. Mice were monitored daily for signs of arthritis and scored using an established clinical scoring system, where: 0=normal, 1=slight swelling and/or erythema, and 2=pronounced edematous swelling. Each limb was graded, giving a maximum score of 8 per mouse. In addition, paw-swelling was measured using calipers.
Histology: At the end of the experiment, paws from treated mice were fixed in formal saline, decalcified and embedded in wax, sectioned and stained with hematoxylin and eosin. […]

[5] = Compound A 1 mg/kg/day PO, Day 0 (prior to arthritis induction)
[6] = Compound A 1 mg/kg/day PO, Day 4
[7] = Compound A 1 mg/kg/day PO, Day 5
[8] = Compound A 1 mg/kg/day PO, Day 6
[9] = Compound A 1 mg/kg/day PO, Day 7
[10] = Compound A 1 mg/kg/day PO, Day 9
[11] = Compound A 1 mg/kg/day PO, Day 11
[12] = Compound A 1 mg/kg/day PO, Day 14
[13] = Compound A 5 mg/kg/day PO, Day 0 (prior to arthritis induction)
[14] = Compound A 5 mg/kg/day PO, Day 4
[15] = Compound A 5 mg/kg/day PO, Day 5
[16] = Compound A 5 mg/kg/day PO, Day 6
[17] = Compound A 5 mg/kg/day PO, Day 7
[18] = Compound A 5 mg/kg/day PO, Day 9
[19] = Compound A 5 mg/kg/day PO, Day 11
[20] = Compound A 5 mg/kg/day PO, Day 14
[21] = Compound A 25 mg/kg/day PO, Day 0 (prior to arthritis induction)
[22] = Compound A 25 mg/kg/day PO, Day 4
[23] = Compound A 25 mg/kg/day PO, Day 5
[24] = Compound A 25 mg/kg/day PO, Day 6
[25] = Compound A 25 mg/kg/day PO, Day 7

CCOc1cc([C@@H](CS(C)(=O)=O)N2Cc3cccc(NC(=O)C4CC4)c3C2=O)ccc1OC [Compound A, cyclopropyl-N-{2-[(1S)-1-(3-ethoxy-4-methoxyphenyl)-2-(methylsulfonyl)ethyl]-3-oxoisoindoline-4-yl}carboxamide]
effect on climbing (spontaneous behavior): little or no effect | effect on grooming (spontaneous behavior): little or no effect | effect on locomotion (spontaneous behavior): only a modest reduction | effect on time spent immobile (spontaneous behavior): little or no effect | Arthritis Scoring, mean of both hind paws (0-4 scale) [1, 5]: 0 | Hind Paws Thickness, group mean [1, 5]: 2.2 mm | Arthritis Scoring, mean of both hind paws (0-4 scale) [1, 6]: 0 | Hind Paws Thickness, group mean [1, 6]: 2.2 mm | Percentage Change in Hind Paw Thickness vs. Study Commencement (Day 0), group mean [1, 6]: 1% | Arthritis Scoring, mean of both hind paws (0-4 scale) [1, 7]: 1 | Hind Paws Thickness, group mean [1, 7]: 2.4 mm | Percentage Change in Hind Paw Thickness vs. Study Commencement (Day 0), group mean [1, 7]: 8% | Arthritis Scoring, mean of both hind paws (0-4 scale) [1, 8]: 2 | Hind Paws Thickness, group mean [1, 8]: 2.7 mm | Percentage Change in Hind Paw Thickness vs. Study Commencement (Day 0), group mean [1, 8]: 24% | Arthritis Scoring, mean of both hind paws (0-4 scale) [1, 9]: 2 | Hind Paws Thickness, group mean [1, 9]: 2.8 mm | Percentage Change in Hind Paw Thickness vs. Study Commencement (Day 0), group mean [1, 9]: 27% | Arthritis Scoring, mean of both hind paws (0-4 scale) [1, 10]: 2 | Hind Paws Thickness, group mean [1, 10]: 2.7 mm | Percentage Change in Hind Paw Thickness vs. Study Commencement (Day 0), group mean [1, 10]: 23% | Arthritis Scoring, mean of both hind paws (0-4 scale) [1, 11]: 1 | Percentage Change in Hind Paw Thickness vs. Study Commencement (Day 0), group mean [1, 11]: 13% | Arthritis Scoring, mean of both hind paws (0-4 scale) [1, 12]: 1 | Hind Paws Thickness, group mean [1, 12]: 2.4 mm | Percentage Change in Hind Paw Thickness vs. Study Commencement (Day 0), group mean [1, 12]: 7% | Arthritis Scoring, mean of both hind paws (0-4 scale) [1, 13]: 0 | Hind Paws Thickness, group mean [1, 13]: 2.2 mm | Arthritis Scoring, mean of both hind paws (0-4 scale) [1, 14]: 0 | Hind Paws Thickness, group mean [1, 14]: 2.2 mm | Percentage Change in Hind Paw Thickness vs. Study Commencement (Day 0), group mean [1, 14]: 1% | Arthritis Scoring, mean of both hind paws (0-4 scale) [1, 15]: 1 | Hind Paws Thickness, group mean [1, 15]: 2.5 mm | Percentage Change in Hind Paw Thickness vs. Study Commencement (Day 0), group mean [1, 15]: 12% | Arthritis Scoring, mean of both hind paws (0-4 scale) [1, 16]: 2 | Hind Paws Thickness, group mean [1, 16]: 2.8 mm | Percentage Change in Hind Paw Thickness vs. Study Commencement (Day 0), group mean [1, 16]: 30% | Arthritis Scoring, mean of both hind paws (0-4 scale) [1, 17]: 2 | Hind Paws Thickness, group mean [1, 17]: 2.8 mm | Percentage Change in Hind Paw Thickness vs. Study Commencement (Day 0), group mean [1, 17]: 30% | Arthritis Scoring, mean of both hind paws (0-4 scale) [1, 18]: 2 | Hind Paws Thickness, group mean [1, 18]: 2.7 mm | Percentage Change in Hind Paw Thickness vs. Study Commencement (Day 0), group mean [1, 18]: 21% | Arthritis Scoring, mean of both hind paws (0-4 scale) [1, 19]: 1 | Percentage Change in Hind Paw Thickness vs. Study Commencement (Day 0), group mean [1, 19]: 15% | Arthritis Scoring, mean of both hind paws (0-4 scale) [1, 20]: 1 | Hind Paws Thickness, group mean [1, 20]: 2.5 mm | Percentage Change in Hind Paw Thickness vs. Study Commencement (Day 0), group mean [1, 20]: 13% | Arthritis Scoring, mean of both hind paws (0-4 scale) [1, 21]: 0 | Hind Paws Thickness, group mean [1, 21]: 2.2 mm | Arthritis Scoring, mean of both hind paws (0-4 scale) [1, 22]: 0 | Hind Paws Thickness, group mean [1, 22]: 2.2 mm | Percentage Change in Hind Paw Thickness vs. Study Commencement (Day 0), group mean [1, 22]: 0% | Arthritis Scoring, mean of both hind paws (0-4 scale) [1, 23]: 1 | Hind Paws Thickness, group mean [1, 23]: 2.4 mm | Percentage Change in Hind Paw Thickness vs. Study Commencement (Day 0), group mean [1, 23]: 8% | Arthritis Scoring, mean of both hind paws (0-4 scale) [1, 24]: 2 | Hind Paws Thickness, group mean [1, 24]: 2.7 mm | Percentage Change in Hind Paw Thickness vs. Study Commencement (Day 0), group mean [1, 24]: 21% | Arthritis Scoring, mean of both hind paws (0-4 scale) [1, 25]: 2 | Hind Paws Thickness, group mean [1, 25]: 2.7 mm | Percentage Change in Hind Paw Thickness vs. Study Commencement (Day 0), group mean [1, 25]: 21% | Arthritis Scoring, mean of both hind paws (0-4 scale) ([1]; Compound A 25 mg/kg/day PO, Day 11): 1 | inhibition at 10 µM [2]: 9% | IC50 [3]: 40 nM | clinical severity of arthritis (clinical score) ([4]; FIG. 3): effective in reducing the clinical severity of arthritis | histological severity of arthritis ([4]; P<0.05, FIG. 4): reduced the histological severity of arthritis
